This passage reports IC50 results from article PMC10196468, “Synthesis, in vitro biological assessment, and molecular docking study of benzimidazole-based thiadiazole derivatives as dual inhibitors of α-amylase and α-glucosidase” (Frontiers in Chemistry, 2023).

For orientation: IC50 means the concentration at which inhibition is half-maximal.

For one assay, the target named is α-glucosidase. Description: in vitro α-glucosidase inhibitory assay (p-nitrophenyl-D-glucopyranoside, 405 nm). The format is biochemical. To be noted: triplicates; standard acarbose; read-out: α-Glucosidase IC50 (µM ±SEM). How it is done:
10 µl of the α-glucosidase enzyme, 20 µl of test samples (10-50 µg/ml) and 50 µl, of 0.1M phosphate buffer (pH=6.8), were incubated at 37°C for 15 min in a 96-well plate. 20 µl of p-nitrophenyl—D-glucopyranoside solution was further added as a substrate and again incubated for 20 min at 37 °C. Sodium carbonate (50 µl of 0.1M) was added to terminate the reaction. P-nitrophenol was liberated, during the reaction which was measured at 405nm using an ELISA microplate reader. […] All the experiments were carried out in triplicates. The percentage inhibition was calculated by the formula.
% Inhibition = [(Ac – As) /Ac] × 100 Ac-absorbance for control, As-absorbance for standard.
`Clc1cccc(/C=N/c2nnc(-c3cccc4[nH]cnc34)s2)c1Cl` [Analog 15, (E)-N-(5-(1H-benzo[d]imidazol-4-yl)-1,3,4-thiadiazol-2-yl)-1-(2,3-dichlorophenyl)methanimine]: the IC50 stood at 6.6 ± 0.1 µM.

Take `O=[N+]([O-])c1cc(Cl)ccc1/C=N/c1nnc(-c2cccc3[nH]cnc23)s1` [Analog 14, (E)-N-(5-(1H-benzo[d]imidazol-4-yl)-1,3,4-thiadiazol-2-yl)-1-(4-chloro-2-nitrophenyl)methanimine]: the IC50 was 9.3 ± 0.4 µM.

On to `O=[N+]([O-])c1ccc(/C=N/c2nnc(-c3cccc4[nH]cnc34)s2)cc1` [Analog 5, (E)-N-(5-(1H-benzo[d]imidazol-4-yl)-1,3,4-thiadiazol-2-yl)-1-(4-nitrophenyl)methanimine], for which the IC50 amounted to 5.7 ± 0.2 µM.

With `COc1ccccc1/C=N/c1nnc(-c2cccc3[nH]cnc23)s1` [Analog 12, (E)-N-(5-(1H-benzo[d]imidazol-4-yl)-1,3,4-thiadiazol-2-yl)-1-(2-methoxyphenyl)methanimine], the IC50 amounted to 15.4 ± 0.3 µM.

Regarding `COc1cccc(/C=N/c2nnc(-c3cccc4[nH]cnc34)s2)c1` [Analog 13, (E)-N-(5-(1H-benzo[d]imidazol-4-yl)-1,3,4-thiadiazol-2-yl)-1-(3-methoxyphenyl)methanimine], the IC50 worked out at 17.2 ± 0.3 µM.

In the case of `Cc1ccccc1/C=N/c1nnc(-c2cccc3[nH]cnc23)s1` [Analog 7, (E)-N-(5-(1H-benzo[d]imidazol-4-yl)-1,3,4-thiadiazol-2-yl)-1-(o-tolyl)methanimine], the IC50 was 19.9 ± 0.1 µM.

In the case of `Brc1ccc(/C=N/c2nnc(-c3cccc4[nH]cnc34)s2)cc1` [Analog 16, (E)-N-(5-(1H-benzo[d]imidazol-4-yl)-1,3,4-thiadiazol-2-yl)-1-(4-bromophenyl)methanimine], the IC50 was found to be 26.1 ± 0.1 µM.

On to `O=[N+]([O-])c1ccccc1/C=N/c1nnc(-c2cccc3[nH]cnc23)s1` [Analog 4, (E)-N-(5-(1H-benzo[d]imidazol-4-yl)-1,3,4-thiadiazol-2-yl)-1-(2 nitrophenyl)methanimine], for which the IC50 stood at 7.4 ± 0.3 µM.

As for `O=[N+]([O-])c1cc(Br)ccc1/C=N/c1nnc(-c2cccc3[nH]cnc23)s1` [Analog 3, (E)-N-(5-(1H-benzo[d]imidazol-4-yl)-1,3,4-thiadiazol-2-yl)-1-(4-bromo-2-nitrophenyl)methanimine], the IC50 was 24.6 ± 0.2 µM.

Regarding `Fc1ccc(/C=N/c2nnc(-c3cccc4[nH]cnc34)s2)cc1` [Analog 9, (E)-N-(5-(1H-benzo[d]imidazol-4-yl)-1,3,4-thiadiazol-2-yl)-1-(4-fluorophenyl)methanimine], the IC50 was 3.9 ± 0.1 µM.

As for `Oc1cc(F)ccc1/C=N/c1nnc(-c2cccc3[nH]cnc23)s1` [Analog 2, (E)-2-(((5-(1H-benzo[d]imidazol-4-yl)-1,3,4-thiadiazol-2-yl)imino)methyl)-5-fluorophenol], the IC50 worked out at 2.1 ± 0.1 µM.

On to `Cc1cccc(/C=N/c2nnc(-c3cccc4[nH]cnc34)s2)c1` [Analog 8, (E)-N-(5-(1H-benzo[d]imidazol-4-yl)-1,3,4-thiadiazol-2-yl)-1-(m-tolyl)methanimine], for which the IC50 turned out to be 21.6 ± 0.3 µM.

For “(E)-N-(5-(1H-benzo[d]imidazol-4-yl)-1,3,4-thiadiazol-2-yl)-1-(4-bromophenyl)methanimine [Analog 17]”, the IC50 was 2.3 ± 0.6 µM.

Consider `FC(F)(F)c1ccc(/C=N/c2nnc(-c3cccc4[nH]cnc34)s2)cc1` [Analog 1, (E)-N-(5-(1H-benzo[d]imidazol-4-yl)-1,3,4-thiadiazol-2-yl)-1-(4-(trifluoromethyl)phenyl)methanimine], for which the IC50 is 2.8 ± 0.2 µM.

Consider `COc1ccc(OC)c(/C=N/c2nnc(-c3cccc4[nH]cnc34)s2)c1` [Analog 10, (E)-N-(5-(1H-benzo[d]imidazol-4-yl)-1,3,4-thiadiazol-2-yl)-1-(2,5-dimethoxyphenyl)methanimine], for which the IC50 was found to be 14.5 ± 0.5 µM.

“(E)-N-(5-(1H-benzo[d]imidazol-4-yl)-1,3,4-thiadiazol-2-yl)-1-(3-fluorophenyl)methanimine [Analog 11]”: the IC50 was 4.7 ± 0.1 µM.

For the molecule `Cc1ccc(/C=N/c2nnc(-c3cccc4[nH]cnc34)s2)cc1` [Analog 6, (E)-N-(5-(1H-benzo[d]imidazol-4-yl)-1,3,4-thiadiazol-2-yl)-1-(p-tolyl)methanimine], the IC50 was 15.3 ± 0.1 µM.

The next assay deals with T1, α-amylase (Sus scrofa, UniProt P00690).
T1 sequence (P00690 16-511): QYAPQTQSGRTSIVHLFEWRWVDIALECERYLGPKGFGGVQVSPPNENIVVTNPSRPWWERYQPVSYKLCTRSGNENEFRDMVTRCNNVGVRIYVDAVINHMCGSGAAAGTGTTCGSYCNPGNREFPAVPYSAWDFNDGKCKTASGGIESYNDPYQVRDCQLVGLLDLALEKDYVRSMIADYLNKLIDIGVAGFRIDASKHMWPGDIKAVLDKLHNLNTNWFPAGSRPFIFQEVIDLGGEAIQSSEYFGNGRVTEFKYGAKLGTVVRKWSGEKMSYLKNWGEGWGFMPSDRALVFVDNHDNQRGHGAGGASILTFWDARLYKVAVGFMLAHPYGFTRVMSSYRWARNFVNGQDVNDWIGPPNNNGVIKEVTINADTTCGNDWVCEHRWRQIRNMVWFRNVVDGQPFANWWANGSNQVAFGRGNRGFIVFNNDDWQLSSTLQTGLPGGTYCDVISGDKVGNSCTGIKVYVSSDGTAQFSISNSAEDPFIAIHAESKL
Description: in vitro α-amylase inhibitory assay (starch/DNS, absorbance 540 nm). The format is biochemical. To be noted: triplicates; standard acarbose; read-out: α-Amylase IC50 (µM ±SEM). How it is done: 20µL of α -amylase solution (0.5 mg/ml) was added to phosphate buffer (pH 6.9, 0.02 M, 200 µL). 250 μL of test samples (10-50 µg/mL) was added, to all the above solutions and kept for incubation for 10 min.1% starch solution (200µL) was further added and again kept for incubation for 10 min at a temperature of 25°C. Termination of the reaction was affected by the addition of 400 μL of 3, 5-dinitrosalicylic acid (DNS) reagent. Lastly, it was incubated in water (at 70°C, 5 min). The absorbance was recorded using an ELISA microplate reader at 540 nm. […] All the reactions were carried out in triplicates. The reaction mixture, devoid of the test sample, served as control. The following formula was employed to calculate percentage inhibition..
% Inhibition = [(Ac – As) /Ac] × 100 Ac-Control absorbance, As-Standard absorbance
As to “(E)-N-(5-(1H-benzo[d]imidazol-4-yl)-1,3,4-thiadiazol-2-yl)-1-(4-bromophenyl)methanimine [Analog 17]”, the IC50 was 2.16 ± 0.5 µM.

As for “(E)-N-(5-(1H-benzo[d]imidazol-4-yl)-1,3,4-thiadiazol-2-yl)-1-(3-fluorophenyl)methanimine [Analog 11]”, the IC50 came out at 3.18 ± 0.1 µM.
